Holding throughout (assay): microbe, parasite or virus in culture
Common to all, as to type: cell-based, human immunodeficiency virus type 1 (HIV-1)

Test [1] concerns HIV-1 Y188L mutant. Conditions: Human immunodeficiency virus 1, HeLa, read-out: EC50 mutant Y188L.
Test [2] concerns HIV-1 K103N mutant. Conditions: Human immunodeficiency virus 1, HeLa, read-out: EC50 mutant K103N.
The subject of test [3] is HIV-1 K103N-Y181C mutant. To be noted: Human immunodeficiency virus 1, HeLa, read-out: EC50 mutant K103N-Y181C.
The test system of test [4] is wild type HIV-1.
Test [5] has as its system HIV-1 K103N-L100I mutant.
[6] abbreviates: Human immunodeficiency virus 1, Hela-JC53.
The mark [7] stands for this setting: Human immunodeficiency virus 1, HeLa, read-out: EC50 mutant K103N-L100I, mutant K103N-L100I.

Like-named read-outs stand apart in the source and are kept apart here. Some results are limits rather than exact numbers.

The results in this text go back to patent publication US8207178B2 (priority 2007, dated 2012).

On to `Cc1cc(-c2ccncc2)cc(C)c1Oc1nc(Nc2ccc(C#N)cc2)nc2ccn(C)c12` [Example 1, 4-(4-(2,6-Dimethyl-4-(pyridin-4-yl)phenoxy)-5-methyl-5H-pyrrolo[3,2-d]pyrimidin-2-ylamino)benzonitrile], for which the EC50 in test [1] is 1 to 10 nM; in test [2] it was less than 1 nM; in test [3], 1 to 10 nM; in test [4] (setting [6]), 1 to 10 nM; in test [5] (setting [7]) it was 1 to 10 nM.
`Cc1cc(-c2ccncc2F)cc(C)c1Oc1nc(Nc2ccc(C#N)cc2)nc2ccn(C)c12` [Example 2, 4-(4-(4-(3-Fluoropyridin-4-yl)-2,6-dimethylphenoxy)-5-methyl-5H-pyrrolo[3,2-d]pyrimidin-2-ylamino) benzonitrile]: the EC50 in test [1] is greater than 10 nM; in test [2], 1 to 10 nM; in test [3], 1 to 10 nM; in test [4] (setting [6]) it was 1 to 10 nM; in test [5] (setting [7]) it was 1 to 10 nM.
Consider `Cc1cc(-c2ccnc(F)c2)cc(C)c1Oc1nc(Nc2ccc(C#N)cc2)nc2ccn(C)c12` [Example 3, 4-(4-(4-(2-Fluoropyridin-4-yl)-2,6-dimethylphenoxy)-5-methyl-5H-pyrrolo[3,2-d]pyrimidin-2-ylamino) benzonitrile], for which the EC50 in test [1] was greater than 10 nM; in test [2] it was 1 to 10 nM; in test [3], greater than 10 nM; in test [4] (setting [6]), 1 to 10 nM; in test [5] (setting [7]), 1 to 10 nM.
As to `Cc1cc(-c2ccncc2C#N)cc(C)c1Oc1nc(Nc2ccc(C#N)cc2)nc2ccn(C)c12` [Example 5, 4-(4-(2-(4-Cyanophenylamino)-5-methyl-5H-pyrrolo[3,2-d]pyrimidin-4-yloxy)-3,5-dimethylphenyl)nicotinonitrile], the EC50 in test [1] is greater than 10 nM; in test [2], less than 1 nM; in test [3], 1 to 10 nM; in test [4] it was less than 1 nM; in test [5] (read-out: EC50 mutant K103N-L100I, mutant K103N-L100I) it was less than 1 nM.
Turning to `Cc1cc(-c2ccnc(C#N)c2)cc(C)c1Oc1nc(Nc2ccc(C#N)cc2)nc2ccn(C)c12` [Example 6, 4-(4-(2-(4-Cyanophenylamino)-5-methyl-5H-pyrrolo[3,2-d]pyrimidin-4-yloxy)-3,5-dimethylphenyl)picolinonitrile], the EC50 in test [1] is greater than 10 nM; in test [2], 1 to 10 nM; in test [3], greater than 10 nM; in test [4] (setting [6]), 1 to 10 nM; in test [5] (setting [7]), 1 to 10 nM.
As to `COc1ccc(Cn2cnc3c(Oc4ccc(-c5ccncc5)cc4)nc(Nc4c(C)cc(C#N)cc4C)nc32)cc1` [Example 105, 4-(9-(4-Methoxybenzyl)-6-(4-(pyridin-4-yl)phenoxy)-9H-purin-2-ylamino)-3,5-dimethylbenzonitrile], the EC50 in test [4] (setting [6]) and in test [5] (setting [7]) was greater than 10 nM each time.
For `Cc1cc(C#N)cc(C)c1Nc1nc(Oc2ccc(-c3ccncc3)cc2)c2nc[nH]c2n1` [Example 106, 3,5-Dimethyl-4-(6-(4-(pyridin-4-yl)phenoxy)-9H-purin-2-ylamino)benzonitrile], the EC50 in test [4] (setting [6]) and in test [5] (setting [7]) was greater than 10 nM each time.
In the case of `Cc1cc(-c2ccncc2)cc(C)c1Oc1nc(Nc2ccc(C#N)cc2)nc2ncn(C)c12` [Example 107, 4-(6-(2,6-Dimethyl-4-(pyridin-4-yl)phenoxy)-7-methyl-7H-purin-2-ylamino)benzonitrile], the EC50 in test [4] (setting [6]) and in test [5] (setting [7]) was 1 to 10 nM in each case.
On to `Cc1cc(-c2ccncc2)cc(C)c1Oc1nc(Nc2ccc(C#N)cc2)nc2c1ncn2C` [Example 108, 4-(6-(2,6-dimethyl-4-(pyridin-4-yl)phenoxy)-9-methyl-9H-purin-2-ylamino)benzonitrile], for which the EC50 in test [4] (setting [6]) and in test [5] (setting [7]) was 1 to 10 nM in each case.
On to `Cc1cc(-c2ccc(C(N)=O)cc2)cc(C)c1Oc1nc(Nc2ccc(C#N)cc2)nc2c1ncn2C` [Example 109, 4′-(2-(4-cyanophenylamino)-9-methyl-9H-purin-6-yloxy)-3′,5′-dimethylbiphenyl-4-carboxamide], for which the concentration for a half-maximal effect (EC50) in test [4] (setting [6]) was less than 1 nM; in test [5] (setting [7]), 1 to 10 nM.
In the same order, the values of `Cc1cc(-c2ccc(C(=O)O)cc2)cc(C)c1Oc1nc(Nc2ccc(C#N)cc2)nc2ncn(C)c12` [Example 110, 4′-(2-(4-Cyanophenylamino)-7-methyl-7H-purin-6-yloxy)-3′,5′-dimethylbiphenyl-4-carboxylic acid] are greater than 10 nM and greater than 10 nM.
For `Cn1cnc2nc(Nc3ccc(C#N)cc3)nc(Oc3c(Cl)cc(-c4ccc(C(N)=O)cc4)cc3Cl)c21` [Example 112, 3′,5′-dichloro-4′-(2-(4-cyanophenylamino)-7-methyl-7H-purin-6-yloxy)biphenyl-4-carboxamide] the same measures were less than 1 nM and 1 to 10 nM.
In the same order, the values of `Cc1cc(-c2ccc(S(N)(=O)=O)cc2)cc(Cl)c1Oc1nc(Nc2ccc(C#N)cc2)nc2c1ncn2C` [Example 113, 3′-chloro-4′-(2-(4-cyanophenylamino)-9-methyl-9H-purin-6-yloxy)-5′-methylbiphenyl-4-sulfonamide] are less than 1 nM and 1 to 10 nM.
As to `Cn1cnc2c(Oc3c(Cl)cc(-c4ccc(C(N)=O)cc4)cc3Cl)nc(Nc3ccc(C#N)cc3)nc21` [Example 114, 3′,5′-dichloro-4′-(2-(4-cyanophenylamino)-9-methyl-9H-purin-6-yloxy)biphenyl-4-carboxamide], the EC50 was less than 1 nM in test [4] (setting [6]) and greater than 10 nM in test [5] (setting [7]).
Regarding `Cc1cc(-c2ccc(S(N)(=O)=O)cc2)cc(Cl)c1Oc1nc(Nc2ccc(C#N)cc2)nc2ncn(C)c12` [Example 115, 3′-chloro-4′-(2-(4-cyanophenylamino)-7-methyl-7H-purin-6-yloxy)-5′-methylbiphenyl-4-sulfonamide], the EC50 in test [4] (setting [6]) and in test [5] (setting [7]) was less than 1 nM throughout.
Take `Cc1cc(-c2ccc(C(N)=O)cc2)cc(Cl)c1Oc1nc(Nc2ccc(C#N)cc2)nc2ncn(C)c12` [Example 116, 3′-chloro-4′-(2-(4-cyanophenylamino)-7-methyl-7H-purin-6-yloxy)-5′-methylbiphenyl-4-carboxamide]: the EC50 in test [4] (setting [6]) was less than 1 nM; in test [5] (setting [7]) it was 1 to 10 nM.
For `Cc1cc(-c2ccc(C(N)=O)cc2)cc(Cl)c1Oc1nc(Nc2ccc(C#N)cc2)nc2c1ncn2C` [Example 117, 3′-chloro-4′-(2-(4-cyanophenylamino)-9-methyl-9H-purin-6-yloxy)-5′-methylbiphenyl-4-carboxamide] the same measures were less than 1 nM and 1 to 10 nM.
For `Cc1cc(-c2ccc(C(N)=O)nc2)cc(C)c1Oc1nc(Nc2ccc(C#N)cc2)nc2ncn(C)c12` [Example 118, 5-(4-(2-(4-cyanophenylamino)-7-methyl-7H-purin-6-yloxy)-3,5-dimethylphenyl)picolinamide] the same measures were 1 to 10 nM and 1 to 10 nM.
For `Cc1cc(-c2ccc(C(N)=O)nc2)cc(C)c1Oc1nc(Nc2ccc(C#N)cc2)nc2c1ncn2C` [Example 119, 5-(4-(2-(4-cyanophenylamino)-9-methyl-9H-purin-6-yloxy)-3,5-dimethylphenyl)picolinamide] the same measures were less than 1 nM and greater than 10 nM.
Take `CCOC(=O)c1ccc(-c2cc(C)c(Oc3nc(Nc4ccc(C#N)cc4)nc4nc[nH]c34)c(C)c2)cn1` [Example 120, Ethyl 5-(4-(2-(4-cyanophenylamino)-7H-purin-6-yloxy)-3,5-dimethylphenyl)picolinate]: the EC50 in test [4] (setting [6]) and in test [5] (setting [7]) was greater than 10 nM throughout.
As to `Cc1cc(-c2ccc(C(N)=O)cn2)cc(C)c1Oc1nc(Nc2ccc(C#N)cc2)nc2c1ncn2C` [Example 124, 6-(4-(2-(4-cyanophenylamino)-9-methyl-9H-purin-6-yloxy)-3,5-dimethylphenyl)nicotinamide], the values for the EC50 in test [4] (setting [6]) and in test [5] (setting [7]) were 1 to 10 nM and greater than 10 nM, respectively.
In the same order, the values of `Cc1cc(-c2ccc(C(=O)N3CCC3)cn2)cc(C)c1Oc1nc(Nc2ccc(C#N)cc2)nc2[nH]cnc12` [Example 125, 4-(6-(4-(5-(azetidine-1-carbonyl)pyridin-2-yl)-2,6-dimethylphenoxy)-9H-purin-2-ylamino)benzonitrile] are 1 to 10 nM and 1 to 10 nM.
For `Cc1cc(-c2ccc(C(=O)N3CCC(C#N)C3)cn2)cc(C)c1Oc1nc(Nc2ccc(C#N)cc2)nc2[nH]cnc12` (stereo not shown) [Example 127, 1-(6-(4-(2-(4-cyanophenylamino)-9H-purin-6-yloxy)-3,5-dimethylphenyl)nicotinoyl)pyrrolidine-3-carbonitrile] the same measures were greater than 10 nM and greater than 10 nM.
For `Cc1cc(-c2ccc(C(=O)N(C)C)cn2)cc(C)c1Oc1nc(Nc2ccc(C#N)cc2)nc2[nH]cnc12` [Example 128, 6-(4-(2-(4-cyanophenylamino)-9H-purin-6-yloxy)-3,5-dimethylphenyl)-N,N-dimethylnicotinamide] the same measures were 1 to 10 nM and greater than 10 nM.
`Cc1cc(-c2ccc(C(N)=O)nc2)cc(C)c1Oc1nc(Nc2ccc(C#N)cc2)nc2[nH]cnc12` [Example 129, 5-(4-(2-(4-cyanophenylamino)-9H-purin-6-yloxy)-3,5-dimethylphenyl)picolinamide]: the EC50 in test [4] (setting [6]) was 1 to 10 nM; in test [5] (setting [7]), greater than 10 nM.
In the same order, the values of `COC(=O)c1ccc(-c2cc(C)c(Oc3nc(Nc4ccc(C#N)cc4)nc4[nH]cnc34)c(C)c2)cn1` [Example 130, Methyl 5-(4-(2-(4-cyanophenylamino)-9H-purin-6-yloxy)-3,5-dimethylphenyl)picolinate] are 1 to 10 nM and greater than 10 nM.
